# Laboratory results published in US5591714A, “Derivatives of A82846” (priority 1994, dated 1997).
# Experiments:
# [1] = test system: Staphylococcus epidermidis 222; experiment: MIC, standard agar-dilution assay; format: cell-based
# Description: (§1) The formula I compounds have in vitro and in vivo activity against Gram-positive pathogenic bacteria. The MIC's were determined using a standard agar-dilution assays.
# [2] = test system: Klebsiella pneumoniae X68; experiment: MIC, standard agar-dilution assay; format: cell-based
# Description: as §1
# [3] = test system: Escherichia coli EC14; experiment: MIC, standard agar-dilution assay; format: cell-based
# Description: as §1
# [4] = test system: Staphylococcus aureus NRRL X1.1; experiment: MIC, standard agar-dilution assay; format: cell-based
# Description: as §1
# [5] = test system: Escherichia coli N10; experiment: MIC, standard agar-dilution assay; format: cell-based
# Description: as §1
# [6] = test system: Haemophilus influenzae 76; experiment: MIC, standard agar-dilution assay; format: cell-based
# Description: as §1
# [7] = test system: Staphylococcus aureus X400; experiment: MIC, standard agar-dilution assay; format: cell-based
# Description: as §1
# [8] = test system: Staphylococcus aureus V41; experiment: MIC, standard agar-dilution assay; format: cell-based
# Description: as §1
# [9] = test system: Escherichia coli TEM; experiment: MIC, standard agar-dilution assay; format: cell-based
# Description: as §1
# [10] = test system: Haemophilus influenzae C.L.; experiment: MIC, standard agar-dilution assay; format: cell-based
# Description: as §1
# [11] = test system: Streptococcus pyogenes C203; experiment: MIC, standard agar-dilution assay; format: cell-based
# Description: as §1
# [12] = test system: Staphylococcus epidermidis EPI270; experiment: MIC, standard agar-dilution assay; format: cell-based
# Description: as §1
# [13] = test system: Klebsiella pneumoniae X26; experiment: MIC, standard agar-dilution assay; format: cell-based
# Description: as §1
# [14] = test system: Klebsiella pneumoniae KAE; experiment: MIC, standard agar-dilution assay; format: cell-based
# Description: as §1
# [15] = test system: Staphylococcus aureus S13E; format: cell-based
# Description: as §1
# [16] = test system: Streptococcus pneumoniae Park 1; format: cell-based
# Description: as §1
# [17] = test system: Streptococcus pneumoniae; experiment: In vivo activity, experimentally infected mice (ED50); details: Streptococcus pneumoniae infection; doses administered subcutaneously to mice 1 and 4 hours postinfection
# [18] = test system: Staphylococcus aureus; experiment: as above; details: Staphylococcus aureus infection; doses administered subcutaneously to mice 1 and 4 hours postinfection
# [19] = test system: Enterococcus faecalis 2041; experiment: MIC, standard agar-dilution assay; format: cell-based
# Description: as §1
# ^c Formerly Streptococcus faecalis 2041
# [20] = test system: Streptococcus pyogenes; experiment: In vivo activity, experimentally infected mice (ED50); details: Streptococcus pyogenes infection; doses administered subcutaneously to mice 1 and 4 hours postinfection
# [21] = test system: Enterococcus faecium X66; experiment: MIC, standard agar-dilution assay; format: cell-based
# Description: as §1
# ^b Formerly Streptococcus faecium X66
SMILES,MIC [1],MIC [2] [µg/mL],MIC [3] [µg/mL],MIC [4],MIC [5] [µg/mL],MIC [6] [µg/mL],MIC [7],MIC [8],MIC [9] [µg/mL],MIC [10] [µg/mL],MIC [11],MIC [12],MIC [13] [µg/mL],MIC [14] [µg/mL],MIC [15],MIC [16],ED50 [17] [mg/kg/2],MIC [19],ED50 [20] [mg/kg/2],MIC [21],other results
CCCCCN(C)[C@H](CC(C)C)C(=O)N[C@H]1C(=O)N[C@@H](CC(N)=O)C(=O)N[C@H]2C(=O)N[C@H]3C(=O)N[C@H](C(=O)N[C@H](C(=O)O)c4cc(O)cc(O)c4-c4cc3ccc4O)[C@H](O[C@H]3C[C@](C)(N)[C@@H](O)[C@H](C)O3)c3ccc(cc3)Oc3cc2cc(c3O[C@@H]2O[C@H](CO)[C@@H](O)[C@H](O)[C@H]2O[C@H]2C[C@](C)(N)[C@@H](O)[C@H](C)O2)Oc2ccc(cc2Cl)[C@H]1O [Compound 6],.5 µg/mL,> 128,> 128,.25 µg/mL,> 128,> 128,.25 µg/mL,.25 µg/mL,> 128,> 128,.125 µg/mL,.5 µg/mL,> 128,> 128,.25 µg/mL,.125 µg/mL,0.94,1 µg/mL,0.67,1 µg/mL,ED50 [18]: 0.88 mg/kg/2
CCCCCN[C@@]1(C)C[C@H](O[C@H]2[C@H](Oc3c4cc5cc3Oc3ccc(cc3Cl)[C@@H](O)[C@@H](NC(=O)[C@@H](CC(C)C)N(C)CCCCC)C(=O)N[C@@H](CC(N)=O)C(=O)N[C@H]5C(=O)N[C@H]3C(=O)N[C@H](C(=O)N[C@H](C(=O)O)c5cc(O)cc(O)c5-c5cc3ccc5O)[C@H](O[C@H]3C[C@](C)(N)[C@@H](O)[C@H](C)O3)c3ccc(cc3)O4)O[C@H](CO)[C@@H](O)[C@@H]2O)O[C@@H](C)[C@@H]1O [Compound 7],1 µg/mL,> 128,> 128,1 µg/mL,> 128,> 128,1 µg/mL,1 µg/mL,> 128,> 128,.5 µg/mL,2 µg/mL,> 128,> 128,1 µg/mL,.5 µg/mL,0.98,2 µg/mL,0.83,2 µg/mL,ED50 [18]: 4.09 mg/kg/2
CN[C@H](CC(C)C)C(=O)N[C@H]1C(=O)N[C@@H](CC(N)=O)C(=O)N[C@H]2C(=O)N[C@H]3C(=O)N[C@H](C(=O)N[C@H](C(=O)O)c4cc(O)cc(O)c4-c4cc3ccc4O)[C@H](O[C@H]3C[C@](C)(N)[C@@H](O)[C@H](C)O3)c3ccc(cc3)Oc3cc2cc(c3O[C@@H]2O[C@H](CO)[C@@H](O)[C@H](O)[C@H]2O[C@H]2C[C@](C)(NCc3ccccc3)[C@@H](O)[C@H](C)O2)Oc2ccc(cc2Cl)[C@H]1O [Compound 10],.25 µg/mL,> 128,> 128,.25 µg/mL,> 128,> 128,.5 µg/mL,.25 µg/mL,> 128,> 128,.25 µg/mL,.25 µg/mL,> 128,> 128,.125 µg/mL,.125 µg/mL,0.4,.5 µg/mL,0.2,.25 µg/mL,ED50 [18]: 0.46 mg/kg/2
CCN(CC)c1ccc(CN[C@@]2(C)C[C@H](O[C@H]3[C@H](Oc4c5cc6cc4Oc4ccc(cc4Cl)[C@@H](O)[C@@H](NC(=O)[C@@H](CC(C)C)NC)C(=O)N[C@@H](CC(N)=O)C(=O)N[C@H]6C(=O)N[C@H]4C(=O)N[C@H](C(=O)N[C@H](C(=O)O)c6cc(O)cc(O)c6-c6cc4ccc6O)[C@H](O[C@H]4C[C@](C)(N)[C@@H](O)[C@H](C)O4)c4ccc(cc4)O5)O[C@H](CO)[C@@H](O)[C@@H]3O)O[C@@H](C)[C@@H]2O)cc1 [Compound 17],.5 µg/mL,> 128,> 128,.5 µg/mL,> 128,> 128,.5 µg/mL,.5 µg/mL,> 128,> 128,.25 µg/mL,1 µg/mL,> 128,> 128,.5 µg/mL,.25 µg/mL,0.33,1 µg/mL,0.23,1 µg/mL,ED50 [18]: 0.78 mg/kg/2
CN[C@H](CC(C)C)C(=O)N[C@H]1C(=O)N[C@@H](CC(N)=O)C(=O)N[C@H]2C(=O)N[C@H]3C(=O)N[C@H](C(=O)N[C@H](C(=O)O)c4cc(O)cc(O)c4-c4cc3ccc4O)[C@H](O[C@H]3C[C@](C)(N)[C@@H](O)[C@H](C)O3)c3ccc(cc3)Oc3cc2cc(c3O[C@@H]2O[C@H](CO)[C@@H](O)[C@H](O)[C@H]2O[C@H]2C[C@](C)(NCc3ccc(Br)cc3)[C@@H](O)[C@H](C)O2)Oc2ccc(cc2Cl)[C@H]1O [Compound 18],.5 µg/mL,> 128,> 128,1 µg/mL,> 128,> 128,1 µg/mL,1 µg/mL,> 128,> 128,.125 µg/mL,1 µg/mL,> 128,> 128,1 µg/mL,.25 µg/mL,0.25,1 µg/mL,0.15,1 µg/mL,ED50 [18]: 1.74 mg/kg/2
CN[C@H](CC(C)C)C(=O)N[C@H]1C(=O)N[C@@H](CC(N)=O)C(=O)N[C@H]2C(=O)N[C@H]3C(=O)N[C@H](C(=O)N[C@H](C(=O)O)c4cc(O)cc(O)c4-c4cc3ccc4O)[C@H](O[C@H]3C[C@](C)(NCc4ccc(Cl)cc4)[C@@H](O)[C@H](C)O3)c3ccc(cc3)Oc3cc2cc(c3O[C@@H]2O[C@H](CO)[C@@H](O)[C@H](O)[C@H]2O[C@H]2C[C@](C)(N)[C@@H](O)[C@H](C)O2)Oc2ccc(cc2Cl)[C@H]1O [Compound 21],.25 µg/mL,> 128,> 128,.5 µg/mL,> 128,> 128,.5 µg/mL,.5 µg/mL,> 128,> 128,.5 µg/mL,.5 µg/mL,> 128,> 128,.25 µg/mL,.5 µg/mL,0.47,.5 µg/mL,0.29,.5 µg/mL,
CN[C@H](CC(C)C)C(=O)N[C@H]1C(=O)N[C@@H](CC(N)=O)C(=O)N[C@H]2C(=O)N[C@H]3C(=O)N[C@H](C(=O)N[C@H](C(=O)O)c4cc(O)cc(O)c4-c4cc3ccc4O)[C@H](O[C@H]3C[C@](C)(NCc4ccc(Cl)cc4)[C@@H](O)[C@H](C)O3)c3ccc(cc3)Oc3cc2cc(c3O[C@@H]2O[C@H](CO)[C@@H](O)[C@H](O)[C@H]2O[C@H]2C[C@](C)(NCc3ccc(Cl)cc3)[C@@H](O)[C@H](C)O2)Oc2ccc(cc2Cl)[C@H]1O [Compound 23],1 µg/mL,> 128,> 128,2 µg/mL,> 128,> 128,2 µg/mL,2 µg/mL,> 128,> 128,2 µg/mL,2 µg/mL,> 128,> 128,2 µg/mL,1 µg/mL,1.02,4 µg/mL,0.8,4 µg/mL,
